The text below walks through data of PMC11212559 (Emerging Microbes & Infections, 2024).

The experiment has as its target E1CTD-E12 complex (Monkeypox virus Zaire-96-I-16, UniProt Q8V4Y7). The experiment can be described thus: biochemical.

Take `C[S+](CC[C@H](N)C(=O)O)C[C@H]1O[C@@H](n2cnc3c(N)ncnc32)[C@H](O)[C@@H]1O` (stereo partly shown) [SAM]: the Kd is 3.87 µM.

One may read the Kd as the concentration at which binding is half-saturated. A higher Kd goes with a looser complex.
